Experimental data: article PMC5080355, “Interaction of the Nitrogen Regulatory Protein GlnB (PII) with Biotin Carboxyl Carrier Protein (BCCP) Controls Acetyl-CoA Levels in the Cyanobacterium Synechocystis sp. PCC 6803” (Frontiers in Microbiology, 2016)

Tests used:
[1] = target: T1, SyGlnB (PII) in complex with SyBCCP (Synechocystis sp. PCC 6803, UniProt Q55247); assay: pull-down of GlnB with His-BCCP on Ni-NTA magnetic beads, SDS-PAGE densitometry, 2-OG titration; assay type: binding; design: gene glnB; GlnB C-terminally Strep-tagged (pASK-IBA3glnBSc); bait His-tagged BCCP (pET15accB), biotinylated with E. coli BirA; both expressed in E. coli and purified; GlnB homotrimer; with Biotin carboxyl carrier protein of acetyl-CoA carboxylase; settings: read-out: apparent IC50
T1 sequence (Q55247 whole entry): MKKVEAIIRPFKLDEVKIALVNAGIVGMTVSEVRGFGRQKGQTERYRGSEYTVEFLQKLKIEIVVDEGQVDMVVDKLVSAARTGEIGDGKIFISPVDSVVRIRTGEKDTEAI
T1 sequence (Q55120 1-154 partner): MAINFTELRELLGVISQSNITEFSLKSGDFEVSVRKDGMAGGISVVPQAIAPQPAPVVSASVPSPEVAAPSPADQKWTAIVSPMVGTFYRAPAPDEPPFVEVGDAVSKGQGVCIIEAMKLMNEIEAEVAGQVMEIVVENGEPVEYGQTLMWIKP

[2] = target: T2, SyGlnB (PII) in complex with SyBCCP (Synechocystis sp. PCC 6803, UniProt Q55247, S49C); assay: biochemical
T2 construct: gene glnB
T2 sequence (Q55120 entry or part of it, stated change not applied): as the sequence (Q55120 1-154 partner) above
T2 sequence (Q55247 whole entry S49C): as the sequence (Q55247 whole entry) above, with S49C counted along it

[3] = target: T3, SyGlnB (PII) in complex with SyBCCP (Synechocystis sp. PCC 6803, UniProt Q55247, S49D); assay: biochemical
T3 construct: gene glnB
T3 sequence (Q55247 whole entry S49D): as the sequence (Q55247 whole entry) above, with S49D counted along it
T3 sequence (Q55120 entry or part of it, stated change not applied, further chain): as the sequence (Q55120 1-154 partner) above

[4] = target: T1, SyGlnB (PII) in complex with SyBCCP; assay: biochemical; design: gene glnB

SMILES | IC50 [1] | EC50 [2] | EC50 [3] | EC50 [4]
O=C(O)CCC(=O)C(=O)O [2-OG] | 41.3 µM | – | – | –
Nc1ncnc2c1ncn2[C@@H]1O[C@H](COP(=O)(O)OP(=O)(O)OP(=O)(O)O)[C@@H](O)[C@H]1O [ATP] | – | 143 µM | 231 µM | 68 µM
